The results in this text go back to patent publication US4044043A, “Derivatives of 9-oxo-13-trans-prostenoic acid esters” (American Cyanamid Company, priority 1975, dated 1977).

The structures appear in SMILES notation. ≈ marks a conversion by molar mass, not a printed value. Where two headings read alike, the source gives them in different places. Some results are limits rather than exact numbers.

In assay [1] the test system is bronchospasms elicited by acetylcholine. In words: Bronchodilator Activity (Konzett Assay) against acetylcholine. It is filed as in vivo, guinea pigs. The settings on record: Cavia porcellus; three logarithmic cumulative intravenous doses. In short, it runs like this: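 Guinea pigs given intravenous spasmogen (5-hydroxytryptamine, histamine or acetylcholine) per Konzett procedure. ED50 derived from three logarithmic cumulative intravenous doses of test compound.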

Assay [2] relates to diastolic blood pressure. Briefly: Prostaglandin-like hypotensive activity in anesthetized rats (minimal dose for about 10 mm. decrease in diastolic blood pressure). Format: in vivo, Male Wistar strain rats. The note with it: Rattus norvegicus; intravenous; decrease of about 10 mm. in diastolic blood pressure. The essentials: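 Male Wistar rats (~250 g), pentobarbital 30 mg./kg. i.v. and hexamethonium 2 mg./kg. i.v., iliac artery cannulated for blood pressure. Compounds in saline-Tween 80 given i.v. at 0.1–10.0 mg./kg.; value is the minimal dose giving ~10 mm. drop in diastolic pressure.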

The subject of assay [3] is Trichophyton mentagrophytes E 11. In words: agar-dilution streak-plate antimicrobial assay. It is filed as cell-based. The settings on record: E11, read-out: Minimal inhibitory conc. (4). The essentials: (§1)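 Test solutions at 2.5 mg/ml serially diluted two-fold, then 1 ml mixed into 9 ml nutrient agar suited to bacteria or fungi. Plates streaked with overnight broth cultures or saline spore suspensions, then incubated. MIC (μg/ml) is the concentration giving complete growth inhibition by visual inspection.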

Assay [4] has as its system Streptococcus pyogenes C 203. In words: agar-dilution streak-plate antimicrobial assay. It is filed as cell-based. The settings on record: C203, read-out: Minimal inhibitory conc. (8). In short, it runs like this:
as §1

The test system of assay [5] is Staphylococcus aureus Rose ATCC 14154. In words: agar-dilution streak-plate antimicrobial assay. The settings on record: ATCC14154, read-out: Minimal inhibitory conc. (7). It is filed as cell-based. In short, it runs like this:
as §1

Assay [6] relates to Trichophyton tonsurans NIH 662. Briefly: agar-dilution streak-plate antimicrobial assay. The note with it: NIH662, read-out: Minimal inhibitory conc. (3). It is filed as cell-based. The essentials: as §1
Assay [7] has as its system Mycobacterium smegmatis ATCC 606. In words: agar-dilution streak-plate antimicrobial assay. Format: cell-based. The settings on record: Mycolicibacterium smegmatis, ATCC606, read-out: Minimal inhibitory conc. (6). The essentials:
as §1

Assay [8] relates to Microsporum gypseum ATCC 14683. Briefly: agar-dilution streak-plate antimicrobial assay. Format: cell-based. The settings on record: Nannizzia gypsea, ATCC14683, read-out: Minimal inhibitory conc. (2). The essentials:
as §1

Assay [9] has as its system Microsporum canis ATCC 10214. In words: agar-dilution streak-plate antimicrobial assay. Format: cell-based. The settings on record: ATCC10214, read-out: Minimal inhibitory conc. (1). In short, it runs like this:
as §1

The subject of assay [10] is Trichophyton rubrum E 97. Briefly: agar-dilution streak-plate antimicrobial assay. Format: cell-based. The note with it: E97, read-out: Minimal inhibitory conc. (5). In short, it runs like this: as §1
In assay [11] the test system is gastric acid secretion. Briefly: Inhibition of basal Gastric Acid Secretion (Acute Gastric Fistula Rat). It is filed as in vivo, Female Sprague-Dawley rats. The note with it: 10 mg./kg. intraduodenal. How it is done: Inhibition of basal gastric acid secretion was determined in the acute gastric fistula rat as follows. Female Sprague-Dawley rats (Charles River Laboratories) weighing 140-160 grams are fasted in individual cages for 18-24 hours. The rats are then lightly anesthetized with ether and their front teeth extracted to avoid destruction of the plastic cannula. A midline incision is then made and the stomach and duodenum exposed. A flanged polyvinyl tube is inserted into the fundic portion of the stomach and secured with a purse string suture line using 4-0 Mersilene. The rat is then dosed by injection of the compound into the duodenum (1.0 ml. per 100 gram body weight). After dosing, the abdominal wall and skin are closed using metal wound clips. The rat is replaced in a cage containing a longitudinal slit to allow the polyvinyl tube to hang freely. An 8 ml. plastic collecting tube is attached to the flanged cannula and hangs freely below the cage. The first 30 minute sample is discarded designating this time as zero. The collecting tube is attached again and samples removed at the end of 60 and 120 minutes. Those samples are referred to as "A" and "B" in the table. The hourly samples are then transferred to a 15 ml. centrifuge tube and centrifuged for 5-10 minutes. Total and sediment volume are then recorded with the supernatant volume being used as volume of secretion. A 1 ml. or less aliquot is then removed and placed in a 50 ml. beaker containing 10 ml. of distilled water. This sample is then titrated using 0.01N NaOH to pH 7.0 using a Beckman zeromatic pH meter. Volume, titratable acidity (meq/L) and total acid output (μ eq/hour) are recorded. Percent inhibition is determined by comparison with the appropriate control. Groups of three rats were used. All compounds are administered in vehicle (0.5% methocel, 0.4% Tween 80, saline) at a constant volume of 1 ml./100 gram rat. Samples were sonicated with care to prevent overheating.

The mark [12] stands for this setting: 2 h, B: 120 minute collection, read-out: % Inhibition Total Acid Output.
Setting [13] is: 2 h, B: 120 minute collection, read-out: % Inhibition Total Acidity.

For `CCCCCC/C=C/[C@@H]1CCCC(=O)[C@H]1CCCCCCC(=O)O` (relative stereo) [9-oxo-10a-homo-13-trans-prostenoic acid], the 50% effective dose (ED50) – broadly, the dose that gives a 50% effect, or the effect in half of the subjects – in [1] is greater than 10.1 mg/kg. Besides, the minimal effective dose (as a rule, the smallest amount tested that counted as effective) in assay [2] came out at 0.2 mg/kg. For the same compound, the MIC in [3] was 100 µg/mL (≈ 297 µM); in assay [4], 10 µg/mL (≈ 29.7 µM); in assay [5], 100 µg/mL (≈ 297 µM); in assay [6], 100 µg/mL (≈ 297 µM); in assay [7], 25 µg/mL (≈ 74.3 µM).

`CC/C=C\CC/C=C/[C@@H]1CCC(=O)[C@H]1CCCCCCC(=O)O` (relative stereo) [9-oxo-13-trans-17-cis-prostadienoic acid] came in with a 50% effective dose (ED50) in [1] of 6 mg/kg. Moreover, the minimal effective dose in assay [2] was found to be 0.2 mg/kg. Moreover, the MIC in assay [3] was 62 µg/mL (≈ 193 µM); in assay [4] it was 62 µg/mL (≈ 193 µM); in [8] it was 62 µg/mL (≈ 193 µM); in assay [5], 250 µg/mL (≈ 780 µM); in assay [9], 125 µg/mL (≈ 390 µM); in assay [10], 125 µg/mL (≈ 390 µM). In addition, the MIC in assay [6] and in [7] was 62 µg/mL (≈ 193 µM) each time.

Compound `CCCCCC/C=C/[C@H]1CCC(=O)[C@@H]1CCCCCCC(=O)O` (relative stereo) [9-oxo-13-trans-prostenoic acid] showed an ED50 in [1] of 1.02 mg/kg. In addition, the minimal effective dose in assay [2] stood at 0.4 mg/kg. The MIC in assay [3] came out at 50 µg/mL (≈ 155 µM); in assay [4], 62 µg/mL (≈ 192 µM); in [8], 50 µg/mL (≈ 155 µM); in [5] it was 250 µg/mL (≈ 775 µM); in [9], 50 µg/mL (≈ 155 µM); in assay [10] it was 250 µg/mL (≈ 775 µM). In addition, the MIC in assay [6] was 50 µg/mL (≈ 155 µM); in assay [7] it was 62 µg/mL (≈ 192 µM).

`CCC/C=C/[C@H]1CCC(=O)[C@@H]1CCCCCCC(=O)O` (relative stereo) [9-oxo-18,19,20-trinor-13-trans-prostenoic acid]: in assay [1], the median effective dose (ED50) was 6.42 mg/kg. In addition, the MIC in [3], in [4], in assay [8] and in [6] was 250 µg/mL (≈ 892 µM) throughout. For the same compound, the inhibition in vivo at 10 mg/kg in assay [11] (1 h, A: 60 minute collection, read-out: % Inhibition Total Acid Output) was 55%; in assay [11] (1 h, A: 60 minute collection, read-out: % Inhibition Total Acidity), 20%; in assay [11] (setting [12]), 55%; in [11] (setting [13]) it was 52%.

Regarding `CCCCC/C=C/[C@H]1CCC(=O)[C@@H]1CCCCCCC(=O)O` (relative stereo) [9-oxo-20-nor-13-trans-prostenoic acid], it took a dose of 1.17 mg/kg to reach the 50% effect level in assay [1] (ED50). This compound also came in with a minimal effective dose in assay [2] of 0.5 to 1 mg/kg. Further, the MIC in assay [3] was determined as 25 µg/mL (≈ 81 µM); in [4], 62 µg/mL (≈ 201 µM); in assay [8], 50 µg/mL (≈ 162 µM); in assay [5], 250 µg/mL (≈ 810 µM); in assay [9] it was 50 µg/mL (≈ 162 µM); in [10], 50 µg/mL (≈ 162 µM). Further, the MIC in [6] was 25 µg/mL (≈ 81 µM); in [7] it was 62 µg/mL (≈ 201 µM).

In turn, `CC(C)CC/C=C/[C@@H]1CCC(=O)[C@H]1CCCCCCC(=O)O` (relative stereo) [17-methyl-9-oxo-19,20-dinor-13-trans-prostenoic acid] had an ED50 in assay [1] of 4.3 mg/kg. This compound also registered a minimal effective dose in assay [2] of 0.5 mg/kg. For the same compound, the MIC in assay [3] is 25 µg/mL (≈ 81 µM); in assay [4], 62 µg/mL (≈ 201 µM); in [8], 50 µg/mL (≈ 162 µM); in [5] it was 250 µg/mL (≈ 810 µM); in assay [9], 50 µg/mL (≈ 162 µM); in assay [10], 50 µg/mL (≈ 162 µM). Moreover, the MIC was 25 µg/mL (≈ 81 µM) in assay [6] and 62 µg/mL (≈ 201 µM) in [7]. For the same compound, the inhibition in vivo at 10 mg/kg in assay [11] (setting [12]) amounted to 53%; in assay [11] (setting [13]), 51%.

In the case of `O=C(O)CCCCCC[C@H]1C(=O)CC[C@@H]1/C=C/CCCCCCCl` (relative stereo) [20-chloro-9-oxo-13-trans-prostenoic acid], the ED50 in [1] was determined as 4.82 mg/kg. Also, in assay [2], the minimal effective dose was 0.5 mg/kg. Further, the MIC worked out at 62 µg/mL (≈ 174 µM) in assay [3]; 62 µg/mL (≈ 174 µM) in assay [4]; 62 µg/mL (≈ 174 µM) in [8]; 250 µg/mL (≈ 700 µM) in assay [5]; 250 µg/mL (≈ 700 µM) in [9]; 62 µg/mL (≈ 174 µM) in assay [10]. Also, the results for the MIC in [6] and in assay [7] were 16 µg/mL (≈ 44.8 µM) and 250 µg/mL (≈ 700 µM), respectively.

`O=C(O)CCCCCC[C@@H]1C(=O)CC[C@H]1/C=C/CCCCl` (relative stereo) [20-chloro-9-oxo-17,18,19-trinor-13-trans-prostenoic acid]: the 50% effective dose (ED50) in [1] was 3.87 mg/kg. This compound also showed a minimal effective dose in assay [2] of 2 to 8 mg/kg. Moreover, the MIC in assay [3], in [8], in [9], in [10] and in [6] was 250 µg/mL (≈ 794 µM) throughout.

For `CCCCCCC/C=C/[C@@H]1CCC(=O)[C@H]1CCCCCCC(=O)O` (relative stereo) [20-methyl-9-oxo-13-trans-prostenoic acid], the 50% effect level in assay [1] (ED50) was put at a dose of 2.44 mg/kg. In assay [2], this compound gave a minimal effective dose of 0.5 to 2 mg/kg. Besides, the MIC is 25 µg/mL (≈ 74.3 µM) in [3]; 10 µg/mL (≈ 29.7 µM) in [4]; 50 µg/mL (≈ 149 µM) in assay [8]; 50 µg/mL (≈ 149 µM) in assay [5]; 100 µg/mL (≈ 297 µM) in assay [9]; 100 µg/mL (≈ 297 µM) in [10]. Further, the MIC in [6] and in assay [7] was 25 µg/mL (≈ 74.3 µM) each time.
